The values that follow are results of earlier work, collected in patent publication US20250090695A1, “IMMUNOSTIMULANT-CYTOTOXIC CONJUGATE COMPOSITION AND METHODS FOR CANCER TREATMENT” (The Research Foundation for the State University of New York, priority 2022, published 2025).

The conditions of data set [1]: metastatic setting; cited from earlier work.
For data set [2] the following is noted: patients; versus 11.2 months with placebo; cited from earlier work.

In the case of `CNC(=O)c1ccc(N2C(=S)N(c3ccc(C#N)c(C(F)(F)F)c3)C(=O)C2(C)C)cc1F` [enzalutamide], the Overall survival extension in data set [1] is 4-5 months.

Consider Radium-223, for which the Overall survival in data set [2] is on record as 14 months.
